{
  "source": "paper PMC10888688",
  "about": "(International Journal of Molecular Sciences, 2024)",
  "key": {"[1]": {"conditions": "cited from earlier work", "from_the_text": "Host defense AMPs contain a high potential to combat drug or multidrug-resistant bacterial pathogens. AMPs are evolutionary conserved molecules found in all kingdoms of life that are effective in fending off infections as a part of innate immunity. The broad-spectrum activity of AMPs provides vital lead molecules for the next generation of antibiotics. In particular, the ability of AMPs to kill Gram-negative bacteria can be exploited for the designing of new antibiotics against drug-resistant strains."}, "[2]": {"tested_on": "Escherichia coli ATCC 25922", "assay": "MIC, broth dilution, E. coli", "format": "cell-based", "conditions": "MH broth, overnight at 37 °C, peptide 0 to 16 μM, OD600, E. coli ATCC 25922", "experimental": "(§1) Typically, an overnight bacterial culture was grown to the mid-log phase on a shaker at 183 rpm, at 37 °C, and then diluted in 2X Mueller Hinton (MH) broth (Millipore-Sigma^TM, Saint Louis, MO, USA) to achieve a final OD of 0.002. In a 96-well plate, 100 μL of the diluted bacterial culture along with 100 μL of peptide, concentrations ranging from 0 μM to 16 μM, was added and incubated overnight at 37 °C. Peptide concentrations were estimated by UV absorbance at a wavelength of 274 nm using a molar extinction coefficient (ε) of 1420 M^−1 cm^−1. Bacterial growth inhibition was determined by absorbance of 96 well plates at OD600 nm using a Cytation spectrophotometer (Agilent, Santa Clara, CA, USA)."}, "[3]": {"tested_on": "Acinetobacter baumannii ATCC BAA-1798", "assay": "MIC, A. baumannii", "format": "cell-based", "conditions": "A. baumannii ATCC BAA-1798; broth dilution, overnight at 37 °C, peptide 0 to 16 μM", "experimental": "as §1"}, "[4]": {"tested_on": "Streptococcus pyogen ATCC 19615", "assay": "MIC, broth dilution, S. pyogenes", "format": "cell-based, Streptococcus pyogenes", "conditions": "MH broth, overnight at 37 °C, peptide 0 to 16 μM, OD600, S. pyogenes ATCC 19615", "experimental": "as §1"}, "[5]": {"tested_on": "Enterococcus faecalis ATCC 29212", "assay": "MIC, broth dilution, E. faecalis", "format": "cell-based", "conditions": "MH broth, overnight at 37 °C, peptide 0 to 16 μM, OD600, E. faecalis ATCC 29212", "experimental": "as §1"}, "[6]": {"tested_on": "human kidney cell line HEK 293T", "assay": "MTS cell survival assay, HEK 293T", "format": "cell-based", "conditions": "OD490, overnight at 37 °C/5% CO2, Figure 1", "experimental": "(§2) Assays were conducted in complete media for cells Dulbecco’s Modified Eagle Medium (DMEM; Gibco; Waltham, MA USA, catalog number: 11995065) supplemented with 10% fetal bovine serum (FBS; Hyclone; Logan, UT, USA, catalog number: SV30160.03HI-1). […] All dose-response peptide dilutions were prepared in a U-bottom 96-well plate. 0.02 × 10^6 cells/50 µL of complete media were seeded overnight per well in a 96-well plate, and 105 µL of serum-free (sf) DMEM were added. Cells and peptides were incubated at 37 °C/5% CO2 overnight. Cell viability was checked using MTS assay and read after 30–45 min, and absorbance at OD490 was read using Tecan Infinite 200 Pro plate reader (Tecan, Mannedrof, Switzerland, CellTiter96®AQueous One Solution Cell Proliferation Assay (MTS); catalog number: G3580)."}, "[7]": {"tested_on": "liver cell line Hep G2", "assay": "MTS cell survival assay, Hep G2", "format": "cell-based, human", "conditions": "OD490, overnight at 37 °C/5% CO2, Figure 1", "experimental": "as §2"}, "[8]": {"target": "T1, LptAm of E. coli (Escherichia coli, UniProt P0ADV1)", "T1 construct": "Recombinant LptAm (residues 28–159) of E. coli; His-tag; made in house; host or cells: E. coli BL21", "assay": "LptAm binding by ITC"}, "[9]": {"tested_on": "Gram-negative bacteria", "conditions": "cited from earlier work", "from_the_text": "Currently, viable antibiotics available to mitigate infections caused by drug-resistant Gram-negative bacteria are highly limited. Thanatin, a 21-residue-long insect-derived antimicrobial peptide (AMP), is a promising lead molecule for the potential development of novel antibiotics. […] As a mode of action, cationic thanatin efficiently permeabilizes the LPS-outer membrane and binds to the periplasmic protein LptAm to inhibit outer membrane biogenesis. […] In this work, we have investigated shorter variants of thanatin in terms of their antibacterial activity, atomic resol ... || Previous studies have shown that residues at the N-terminus of thanatin ([…]) can be dispensable for antimicrobial activity. By contrast, deletion of residues at the C-terminus of thanatin drastically reduces activity against Gram-negative bacteria. […] However, antibacterial activity was ..."}, "[10]": {"tested_on": "Gram-negative bacteria", "conditions": "cited from earlier work", "from_the_text": "(§3) Cationic AMPs are known ...", "remark": "listed apart in the source"}, "[11]": {"tested_on": "outer membrane of Gram-negative bacteria", "conditions": "binding with negatively charged LPS; cited from earlier work", "from_the_text": "as §3"}, "[12]": {"tested_on": "LptAm", "conditions": "truncated functional variant of LptA; cited from earlier work", "from_the_text": "The 21-residue-long thanatin was isolated from the hemolymph of the bacteria-treated insect Podisus maculiventris. A single disulfide bond between residues Cys11 and […] stabilizes the β-hairpin structure of thanatin with a flexible N-terminus region. […] Cationic AMPs are known ..."}, "[13]": {"tested_on": "LptA and LptC complex", "conditions": "binding of LptA; cited from earlier work", "from_the_text": "(§4) In this work, we have investigated shorter variants of thanatin in terms of their antibacterial activity, atomic resol ..."}, "[14]": {"tested_on": "periplasmic part of the β-taco domain of LptD", "conditions": "cited from earlier work", "from_the_text": "as §4"}},
  "note": "“Also recorded” adds a separate entry of the source. Ends that are not written are not given here.",
  "data": [
    {"molecule": "polymyxin B", "values": [
      {"measurement": "nephrotoxicity, in words", "setting": "[1]", "value": "nephrotoxicity"}
    ]},
    {"molecule": "CC[C@H](C)[C@H](NC(=O)[C@@H](NC(=O)[C@@H]1CCCN1C(=O)[C@@H](N)C(C)C)[C@@H](C)CC)C(=O)N[C@@H](Cc1ccc(O)cc1)C(=O)N[C@H]1CSSC[C@@H](C(=O)N[C@@H](CCC(N)=O)C(=O)N[C@@H](CCCNC(=N)N)C(=O)N[C@@H](Cc2ccccc2)C(N)=O)NC(=O)[C@H](CCCCN)NC(=O)[C@@H](CCCCN)NC(=O)[C@H]([C@@H](C)O)NC(=O)[C@H](CCCNC(=N)N)NC(=O)[C@H](CCCNC(=N)N)NC(=O)[C@H](CC(N)=O)NC1=O", "note": "[VF16]", "values": [
      {"measurement": "MIC (EC)", "setting": "[2]", "value": 0.5, "unit": "µM"},
      {"measurement": "MIC (AB)", "setting": "[3]", "value": ">16", "unit": "µM"},
      {"measurement": "MIC (SP)", "setting": "[4]", "value": 1, "unit": "µM"},
      {"measurement": "MIC (EF)", "setting": "[5]", "value": ">16", "unit": "µM"},
      {"measurement": "toxicity / cell survival, HEK 293T, in words", "setting": "[6]", "value": "did not show any detectable toxicity; also recorded: essentially non-toxic as both the cell lines demonstrate a high percentage of survival"},
      {"measurement": "toxicity / cell survival, Hep G2, in words", "setting": "[7]", "value": "did not show any detectable toxicity; also recorded: essentially non-toxic as both the cell lines demonstrate a high percentage of survival"},
      {"measurement": "Kd", "setting": "[8]", "value": 250, "unit": "nM"}
    ]},
    {"molecule": "GSKKPVPIIYCNRRTGKCQRM (disulfide) [thanatin, 21-residue-long insect-derived antimicrobial peptide isolated from Podisus maculiventris, single disulfide bond Cys11-Cys16]", "values": [
      {"measurement": "activity against Gram-negative pathogens, in words (abstract)", "setting": "[9]; Enterobacter group, e.g., E. coli and K. pneumoniae, background statement, no reference given", "value": "extremely potent"},
      {"measurement": "activity against Gram-negative bacteria, in words", "setting": "[9]; including drug-resistant strains of E. coli and K. pneumoniae", "value": "potent activity"},
      {"measurement": "effect in animal models of sepsis and infections, in words", "setting": "[10]", "value": "lowering of Gram-negative bacterial loads and also neutralization of toxicity of LPS"},
      {"measurement": "outer membrane permeabilization, in words", "setting": "[11]", "value": "efficient permeabilization of the outer membrane of Gram-negative bacteria"},
      {"measurement": "LptAm binding, in words", "setting": "[12]", "value": "high-affinity binding with LptAm"},
      {"measurement": "inhibition of LPS transport, in words", "setting": "[13]", "value": "disrupting LptA and LptC complex"},
      {"measurement": "LptD binding, in words", "setting": "[14]", "value": "binds to the periplasmic part of the β-taco domain of LptD"}
    ]},
    {"molecule": "thanatin analog with M21F substitution: thanatin analog with M21F substitution (GSKKPVPIIYCNRRTGKCQRF; ends and bridges not checked; cysteine pairing not given here; UniProt P55788 1-21, looked up, variant M21F)", "values": [
      {"measurement": "antibacterial activity of M21F analog, in words", "setting": "[9]; compared with thanatin", "value": "better antibacterial activity"}
    ]}
  ]
}
